Like-named read-outs stand apart in the source and are kept apart here.
How the values were obtained:
[1] = target: Aurora B (Homo sapiens, UniProt Q96GD4); assay: Aurora B inhibition in cells: Histone H3 Ser10 phosphorylation by western blotting and immunofluorescence; type: cell-based; design: endogenous in cells; host or cells: U2OS (human osteosarcoma); HeLa also used for the maleate salts; key to Aurora B inhibition: +++: very efficient inhibition; −: no inhibition; conditions: for Aurora B inhibition: cells, Histone H3 Ser10 phosphorylation, western blotting and immunofluorescence, compounds 1 μM; for Aurora B kinase inhibition of maleate salts (in words): U2OS and HeLa cells, 1 μM overnight with Nocodazole, immunoblotting (FIG. 11)
Chain of Aurora B (Q96GD4 whole entry): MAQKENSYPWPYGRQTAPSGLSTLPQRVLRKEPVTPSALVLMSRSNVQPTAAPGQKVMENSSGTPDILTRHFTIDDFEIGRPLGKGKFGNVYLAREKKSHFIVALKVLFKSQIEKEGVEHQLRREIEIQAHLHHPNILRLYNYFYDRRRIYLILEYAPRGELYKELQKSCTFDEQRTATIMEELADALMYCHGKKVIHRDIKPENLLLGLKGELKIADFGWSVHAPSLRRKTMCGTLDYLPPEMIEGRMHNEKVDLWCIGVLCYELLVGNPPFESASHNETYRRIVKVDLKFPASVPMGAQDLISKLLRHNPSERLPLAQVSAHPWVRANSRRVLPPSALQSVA
Experimental: Actin is used as control of quantity. Cells were incubated overnight in the presence of either C1, or C2 or CH21 or C14 or DMSO(C: control). All compounds were tested at 1 μM. Proteins were detected by western blotting.
Cells were incubated with the different molecules and Aurora B inhibition is estimated by western blotting (WB) and immuno fluorescent experiments. Histone H3 phosphorylated on Ser10 is used as a marker of Aurora B kinase activity and actin as an internal control. Each WB signal is compared to the control in the absence of compound. The efficiency estimated by WB is indicated by +++: very efficient inhibition to −: no inhibition. Immunofluorescent labelling of a mitotic cell by Histone H3 illustrates Aurora B kinase activity. However immunofluorescence is less sensitive than WB. Active molecules are underlined by a square and the intensity of the line indicates the efficiency of inhibition.
FIG. 10A: Immunofluorescence with phospho-Ser10-Histone H3 antibodies. Either the percentage of positive phospho-Ser10-Histone H3 is indicated or a representative mitosis shown. […] Immunofluorescent assays were realized with a specific phospho-antibody and mitotic U2OS cells are recognized by their DNA content stained with Hoechst. On the right, a representative cell or the percentage of H3-S10-P labelled mitosis.
(§1) FIG. 10B: Immunoblotting analysis of histone H3 phosphorylation. U2OS cells were incubated overnight with Nocodazole (50 nM) in the presence of either DMSO (Co) or Compounds (1 μM). Cells were then collected and lyzed. Identical amounts of the lyzed cell samples were run on 18% acrylamide gel containing SDS.
as §1, with “FIGS. 11B and 11C:” for “FIG. 10B:”, “U2OS and HeLa” for “U2OS”
Cells were incubated with the different molecules and Aurora B inhibition is estimated by western blotting and immunofluorescent experiments. Histone H3 phosphorylated on Ser10 is used as a marker of Aurora B kinase activity and actin as an internal control. Results are represented in FIGS. 4 and 10 and Table 3.
(§2) Cells were treated by compounds, harvested and lyzed in 9M urea then supplemented with Laemmli sample buffer. Cell extracts were subjected to SDS-PAGE and transferred to nitrocellulose filter (GE Healthcare). After blocking with 5% non-fat milk in PBS for at least 1 hour, the membranes were incubated with the primary antibodies. The following antibodies were used: phospho-Histone H3 Ser10 (1:2000, Upstate Biotechnology), anti LAST1 (Cell signalling), anti Aurora B (epitomics) and anti alpha-tubulin (Sigma) Anti-rabbit horseradish peroxidase (1:5000, GE Healthcare) was used as secondary antibodies. Bands were visualized by ECL technique (Amersham Bioscience).
Cells were seeded on glass coverslips and treated by compounds (1 μM) overnight. After treatment, cells were fixed in 4% formaldhehyde at 37° C. for 15 minutes, then permeabilized for 5 minutes with Triton X-100 in PBS.

[2] = tested on: HeLa cells; assay: Cell viability / antiproliferative assay; type: cell-based; conditions: HeLa cells, average of three independent experiments, concentration that induced 50% death, read-out: IC50 (in nM), antiproliferative assay
Text: Antiproliferative assays with HeLa cells have been performed with the preferred compounds and compared to the C1 and C2. The average of three independent experiments is shown. IC50 obtained with C1 and C2 were previously reported in Hoang et al, 2009, and are indicated for comparison. The lateral chain of each molecule is recalled, knowing that all the molecules have an oxo group at position 11. IC50 are indicated, i.e. the concentration that induced 50% death.
H358, H322 (lung cancer cells), U373 (glioblastomes) and HeLa ([…]) were grown in DMEM (1.5 g/L glucose) whereas HL60 (human myeloid cell line) cells were in RPMI 1640. U2OS (a human osteosarcoma cell line) cells were cultured in McCoy's Medium 5 A and liver cells (SK Hep 1) in DMEM (4 g/L glucose, (Gibco-Invitrogen). Media (Gibco-Invitrogen), were supplemented with 10% heat-inactivated foetal bovine serum (Gibco-Invitrogen), L-glutamine (2 mM), penicillin (100 UI/ml) and streptomycin (100 μg/ml).
Cell proliferation assays were conducted in 96 well culture plates. Assays were run in triplicate. Cell viability was estimated upon 72 h of treatment with varying concentrations of compound by addition of CellTiter 96Queous one Solution Reagent (Promega) directly to culture wells under conditions defined by the manufacturer.

[3] = target: T1, NUAK1 (Homo sapiens, UniProt O60285); assay: Nuak1 inhibition in cellulo: LATS1 stabilization by western blot; type: cell-based; conditions: HeLa cells treated ON; whole cell extracts, WB, compared to control
T1 construct: Reaction biology Corp (USA), service
T1 sequence (O60285 1-661): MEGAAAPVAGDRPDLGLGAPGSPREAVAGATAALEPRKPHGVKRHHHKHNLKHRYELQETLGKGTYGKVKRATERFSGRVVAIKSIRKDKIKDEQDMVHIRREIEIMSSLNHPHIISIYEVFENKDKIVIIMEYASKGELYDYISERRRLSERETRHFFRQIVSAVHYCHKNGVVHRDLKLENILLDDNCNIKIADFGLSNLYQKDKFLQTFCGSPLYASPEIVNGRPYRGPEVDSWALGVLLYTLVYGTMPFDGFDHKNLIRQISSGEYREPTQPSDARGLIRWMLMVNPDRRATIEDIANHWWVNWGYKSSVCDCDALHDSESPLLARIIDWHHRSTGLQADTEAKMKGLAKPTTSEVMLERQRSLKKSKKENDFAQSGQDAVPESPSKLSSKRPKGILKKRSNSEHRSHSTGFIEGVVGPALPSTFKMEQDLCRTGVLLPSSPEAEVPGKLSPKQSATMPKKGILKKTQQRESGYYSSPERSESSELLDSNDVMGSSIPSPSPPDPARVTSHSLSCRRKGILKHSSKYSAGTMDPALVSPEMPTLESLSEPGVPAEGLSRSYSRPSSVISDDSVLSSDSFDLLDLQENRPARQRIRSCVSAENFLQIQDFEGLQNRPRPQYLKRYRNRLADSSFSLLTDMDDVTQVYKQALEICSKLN
Experimental: HeLa cells were treated ON by C21 (also named CH21) and C14M and compared to the control (C0). Whole cell extracts were analyzed by WB with anti LATS1 monoclonal antibody and the loading was quantified through the tubulin signal.
Therefore the possibility of inhibiting Nuakl, in cellulo, was evaluated through the stabilization of the Large Antigen Tumour Suppressor LATS1.
as §2

[4] = target: T1, NUAK1; assay: In vitro IC50 on recombinant kinase; type: biochemical
Experimental: The efficiency of the 3-amino-ethoxy compounds to inhibit Nuak1 was determined in vitro.
The profiling was performed at the MRC (Dundee University), in duplicate, on a set of 121 kinases. The panel is representative of the major different classes of kinases. Compounds were used at the concentration of 1 μM. In vitro, IC50 were determined on recombinant kinases by Reaction biology Corp (USA).

| Aurora B inhibition [1] | SMILES | also measured |
| --- | --- | --- |
| − | Cc1cncc2c1[nH]c1ccc3cc(OCCCN(C)C)ccc3c12 [Compound C23, 3-(3-N,N-dimethylaminopropoxy)-8-methyl-7H-benzo[e]pyrido(4,3-b)indole] |  |
| − | Cc1cnc(Cl)c2c1[nH]c1ccc3cc(OCCN4CCOCC4)ccc3c12 [Compound C05, 11-Chloro-3-(2-(morpholin-4-yl)ethoxy)-8-methyl-7H-benzo[e]pyrido(4,3-b)indole] |  |
| − | Cc1cnc(Cl)c2c1[nH]c1ccc3cc(OCCN4CCCCC4)ccc3c12 [Compound C709, 11-Chloro-3-(2-(piperidin-1-yl)ethoxy)-8-methyl-7H-benzo[e]pyrido(4,3-b)indole] |  |
|  | Cc1c[nH]c(=O)c2c1[nH]c1ccc3cc(OCCN(C)C)ccc3c12 [Compound C14M, 3-(2-N,N-Dimethylaminoethoxy)-8-methyl-7H,10H-benzo[e]pyrido(4,3-b)indol-11-one] | Aurora B kinase inhibition of maleate salts (in words) [1]: maintained; IC50 [2]: 114 ± 82 nM; LATS1 protein level (in words) [3]: large increase |
| − | COCCOc1ccc2c(ccc3[nH]c4c(C)c[nH]c(=O)c4c32)c1 [Compound C711, 3-(2-Methoxyethoxy)-8-methyl-7H,10H-benzo[e]pyrido(4,3-b)indol-11-one] |  |
| − | COCCOc1ccc2c(ccc3[nH]c4c(C)cnc(Cl)c4c32)c1 [Compound C708, 11-Chloro-3-(2-methoxyethoxy)-8-methyl-7H-benzo[e]pyrido(4,3-b)indole] |  |
| − | CCc1cnc(Cl)c2c1[nH]c1ccc3cc(OCCN(C)C)ccc3c12 [Compound C40, 11-Chloro-3-(2-N,N-dimethylaminoethoxy)-8-ethyl-7H-benzo[e]pyrido(4,3-b)indole] |  |
| +++ | Cc1c[nH]c(=O)c2c1[nH]c1ccc3cc(OCCN4CCCCC4)ccc3c12 [Compound C710, 3-(2-(Piperidin-1-yl)ethoxy)-8-methyl-7H,10H-benzo[e]pyrido(4,3-b)indol-11-one] |  |
| − | COc1ncc(C)c2[nH]c3ccc4cc(OCCN(C)C)ccc4c3c12 [Compound C12, 11-Methoxy-3-(2-N,N-dimethylaminoethoxy)-8-methyl-7H-benzo[e]pyrido(4,3-b)indole] |  |
|  | Cc1c[nH]c(=O)c2c1[nH]c1ccc3cc(OCCN4CCOCC4)ccc3c12 [Compound C07M, 3-(2-(Morpholin-4-yl)ethoxy)-8-methyl-7H,10H-benzo[e]pyrido(4,3-b)indol-11-one] | Aurora B kinase inhibition of maleate salts (in words) [1]: maintained; IC50 [2]: 287 ± 32 nM |
| +++ | CCc1c[nH]c(=O)c2c1[nH]c1ccc3cc(OCCN(C)C)ccc3c12 [Compound C48, 3-(2-N,N-dimethylaminoethoxy)-8-ethyl-7H,11H-benzo[e]pyrido(4,3-b)indol-11-one] | IC50 ([2]; Homo sapiens, HeLa): 53 ± 3 nM; IC50 [4]: 5.7 nM |
|  | CCc1c[nH]c(=O)c2c1[nH]c1ccc3cc(OCCN(C)C)ccc3c12 [Compound C48M, 3-(2-N,N-dimethylaminoethoxy)-8-ethyl-7H,11H-benzo[e]pyrido(4,3-b)indol-11-one] | Aurora B kinase inhibition of maleate salts (in words) [1]: maintained; IC50 [2]: 63 ± 17 nM |
| − | COc1ccc2c(c1)CCc1[nH]c3c(C)c[nH]c(=O)c3c1-2 [Compound C11, reference compound] |  |
| +++ | Cc1c[nH]c(=O)c2c1[nH]c1ccc3cc(OCCN4CCOCC4)ccc3c12 [Compound C07, 3-(2-(Morpholin-4-yl)ethoxy)-8-methyl-7H,10H-benzo[e]pyrido(4,3-b)indol-11-one] | IC50 [2]: 107 ± 12 nM; IC50 [4]: 1.6 nM |

Source: patent US20140073637A1, “AMINO-SUBSTITUTED-ALKYLOXY-BENZO[E]PYRIDO[4,3-B]INDOLE DERIVATIVES AS NEW POTENT KINASE INHIBITORS” (INSTITUT CURIE, priority 2011, published 2014)
